Assay results: paper PMC11750672, “The in vivo metabolic pathway of Deg-AZM and in vitro investigations into the contribution of drug metabolizing enzymes and drug transporters in the drug interactions of Deg-AZM, a clinical-stage new transgelin agonist” (Frontiers in Pharmacology, 2025)

Legend:
CYP2B6 = assay: CYP induction (mRNA, qPCR) in human hepatocytes; details: for CYP2B6 induction, % of PC: PC phenobarbital 1 mM
Text: After culture and complete induction, total mRNA was extracted by TRNzol RNA Extraction Kit (purchased from Tiangen Biochemical Technology Co., Ltd., Beijing). The RNA was reverse transcribed into cDNA according to the instructions of the Transcriptor First Strand cDNA Synthesis Kit (purchased from Roche, Switzerland). Using reverse transcribed cDNA as a template, amplifying the internal reference genes of β-Actin of the sample and target genes of CYP1A2, CYP2B6, and CYP3A4 respectively to compare the expression differences.

human liver microsomes = test system: human liver microsomes; design: method as in Gu et al., 2024; details: ref Gu et al., 2024; cited from earlier work
rCYP3A4 = molecular target: T1, rCYP3A4 (Homo sapiens, UniProt P08684); assay: Recombinant CYPs phenotyping assay; type: in vitro ADME; details: 1 μM, 1.5 h
T1 construct: purchased Research Institute for Liver Diseases Co. Ltd., Shanghai
T1 sequence (P08684 whole entry): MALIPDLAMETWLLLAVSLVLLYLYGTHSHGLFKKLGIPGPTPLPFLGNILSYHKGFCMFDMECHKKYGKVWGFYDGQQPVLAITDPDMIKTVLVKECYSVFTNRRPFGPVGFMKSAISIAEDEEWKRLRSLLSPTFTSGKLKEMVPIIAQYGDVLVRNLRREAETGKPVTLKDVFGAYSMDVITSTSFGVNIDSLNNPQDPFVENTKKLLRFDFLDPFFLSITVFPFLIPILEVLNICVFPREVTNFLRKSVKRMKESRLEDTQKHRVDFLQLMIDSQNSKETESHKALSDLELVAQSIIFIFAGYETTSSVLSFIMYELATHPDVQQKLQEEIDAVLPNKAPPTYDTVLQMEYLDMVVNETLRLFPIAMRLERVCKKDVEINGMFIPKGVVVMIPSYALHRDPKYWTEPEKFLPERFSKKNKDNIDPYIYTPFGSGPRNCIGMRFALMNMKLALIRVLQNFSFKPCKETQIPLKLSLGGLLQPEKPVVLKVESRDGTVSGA
Experimental: Deg-AZM (1 μM) was treated with pooled NADPH (1 mM) and recombinant CYPs (rCYP1A2, rCYP2B6, rCYP2C8, rCYP2C9, rCYP2C19, rCYP2D6, and rCYP3A4, purchased from Research Institute for Liver Diseases Co. Ltd., Shanghai) at 25 pmol/mL for 90 min. The isoform-selective probe substrates served as positive controls (same as the positive controls in HLM phenotyping assays).

[1] = Excretion and material balance in rats (urine, feces 0-24 h); type: in vivo; details: through the kidneys and urine
Experimental: The plasma samples at 0.167 h, 0.5 h, 3 h and 8 h after administration were obtained from the study of tissue distribution in rats ([Gu et al., 2024]). Urine, feces and bile samples at 0–24 h after administration were obtained from the excretion study of a single gavage administration of 25 mg/kg Deg-AZM in rats ([Gu et al., 2024]).
The types and proportions of metabolites in the excretion pathway were elucidated in this study. […] Based on the peak area in this study, the total amount of metabolites in urine and feces of rats was 0.589 times and 9.96 times that of the original form of Deg-AZM, respectively. The total amount of Deg-AZM excreted in its original form and various metabolites in urine and feces was 23.7% and 19.8% of the administered dose, respectively, with a material balance coefficient of 43.5%. Deg-AZM was mainly excreted in the form of its original form M0 (cumulative excretion fraction of 14.9%) and metabolite M2 (cumulative excretion fraction of 5.33%) through the kidneys and urine, and in the form of metabolite M1-2 (cumulative excretion fraction of 4.29%) and M2 (cumulative excretion fraction of 3.93%) through the intestines and feces. […] It is necessary to obtain standard samples of the main metabolites for accurate quantification or use isotope tracing techniques to further improve material balance research in the clinical stage.

CYP3A = assay: HLM phenotyping assay with CYP3A inhibitor ketoconazole; type: in vitro ADME, human; details: 1 μM, HLM 0.5 mg/mL, NADPH, 90 min, with 1 µM ketoconazole
Experimental: Deg-AZM (1 μM) was treated with pooled HLM (0.5 mg/mL) and NADPH (1 mM) for 90 min with or without seven specific inhibitors (10 µM furafylline for CYP1A2, 10 µM ticlopidine for CYP2B6, 5 µM montelukast for CYP2C8, 10 µM sulfaphenazole for CYP2C9, 10 µM ticlopidine for CYP2C19, 2.5 µM quinidine for CYP2D6, 1 µM ketoconazole for CYP3A). Isoform-selective probe substrates, 10 µM phenacetin for CYP1A2, 20 µM bupropion for CYP2B6, 2 µM amodiaquine for CYP2C8, 5 µM diclofenac for CYP2C9, 20 µM S-mephenytoin for CYP2C19, 5 µM bufuralol for CYP2D6, 2 µM midazolam for CYP3A4, were used as positive controls.

- CYP2B6 induction, % of PC (CYP2B6; 5 μM, batch HUB): −0.466%
- CYP2B6 induction, % of PC (CYP2B6; 5 μM, batch LHuf 17905B): 6.61%
- CYP2B6 induction, % of PC (CYP2B6; 5 μM, batch MWB): 4.39%
- CYP2B6 mRNA induction, times of control group (CYP2B6; 5 μM, hepatocyte batch HUB): 0.942
- CYP2B6 mRNA induction, times of control group (CYP2B6; 5 μM, hepatocyte batch LHuf 17905B): 1.61
- CYP2B6 mRNA induction, times of control group (CYP2B6; 5 μM, hepatocyte batch MWB): 1.60
- CYP2B6 induction, % of PC (CYP2B6; 25 μM, batch HUB): 0.0278%
- CYP2B6 induction, % of PC (CYP2B6; 25 μM, batch LHuf 17905B): 5.00%
- CYP2B6 induction, % of PC (CYP2B6; 25 μM, batch MWB): 6.09%
- CYP2B6 mRNA induction, times of control group (CYP2B6; 25 μM, hepatocyte batch HUB): 1.00
- CYP2B6 mRNA induction, times of control group (CYP2B6; 25 μM, hepatocyte batch LHuf 17905B): 1.46
- CYP2B6 mRNA induction, times of control group (CYP2B6; 25 μM, hepatocyte batch MWB): 1.83
- CYP2B6 induction, % of PC (CYP2B6; 100 μM, batch HUB): 2.97%
- CYP2B6 induction, % of PC (CYP2B6; 100 μM, batch LHuf 17905B): 19.8%
- CYP2B6 induction, % of PC (CYP2B6; 100 μM, batch MWB): 24.3%
- CYP2B6 mRNA induction, times of control group (CYP2B6; 100 μM, hepatocyte batch HUB): 1.37
- CYP2B6 mRNA induction, times of control group (CYP2B6; 100 μM, hepatocyte batch LHuf 17905B): 2.84
- CYP2B6 mRNA induction, times of control group (CYP2B6; 100 μM, hepatocyte batch MWB): 4.33
- Induction effect on CYP2B6 (conclusion) (CYP2B6; 5, 25, and 100 µM, three batches of human hepatocytes): has an induction effect
- Average residual proportion of Deg-AZM (rCYP3A4; 25 pmol/mL CYP3A4 monomeric enzyme): 75.9%
- Elimination proportion of Deg-AZM (rCYP3A4; CYP3A4 monomeric enzyme): greater than 15%
- Cumulative excretion fraction, urine [1]: 14.9%
- Deg-AZM remaining (CYP3A): 93.4%
Compound: CCC1OC(=O)C(C)C(O)C(C)C(O)C(C)(O)CC(C)CN(C)C(C)C(O)C1(C)O (stereo not drawn) [Deg-AZM, Deglycosylated azithromycin]
- T1/2 (human liver microsomes): 46.5 min
